Measured values: patent EP0760376A1, “PEPTIDES INHIBITING PHOSPHOLIPASE C” (Kyowa Hakko Kogyo Co., Ltd., priority 1995, dated 1996)
Converted amounts (≈) assume the structure as drawn. Square brackets hold non-standard residues; d marks the D form. Peptide text beside a SMILES is read from it. * marks the point of attachment. 12Ado = NCCCCCCCCCCCC(=O)O; Aun = NCCCCCCCCCCC(=O)O; Butyryl = CCCC(=O)*

Assays:
[1] = system: KMS-4 cells; experiment: Cell growth-inhibiting activity (BrdU incorporation, cell growth detection kit); format: cell-based; details: Concentration 1 µM, culturing with peptide for 17 hours
Procedure: The cell growth-inhibiting activity was determined using a cell growth detection kit (Amersham) in the following manner. KMS-4 cells [M. Nanba et al, International Journal of Cancer, 32, 697 (1983)] were suspended in DMEM medium (Nissui Pharmaceutical Co., Ltd.) containing 10% fetal calf serum at a density of 1-2 x 10^4 cells/ml, and 1 ml of the cell suspension was put into each well of a 24-well plate (Corning Inc.). The cells were cultured in a CO2 incubator (37°C, 5% CO2) for 2 days. Then, the medium was replaced with a fresh DMEM medium containing 10% fetal calf serum, and the test peptide was added thereto, followed by culturing for 17 hours. The medium was replaced with a serum-free DMEM medium, and 0.5 ml of a solution prepared by diluting labeled reagent 5-bromo-2'-deoxyuridine (BrdU) and 5-fluoro-2'-deoxyuridine (FdU) (10:1) 1000-fold with the same medium was added to each well, followed by culturing for 2 hours. Then the medium was removed, and the cells were immobilized with an acetic acid/ethanol solution. The immobilized cells were stained according to the method for the cell growth detection kit of Amersham, and then further stained with a 1% Giemsa solution (Merck & Co., Inc.). The number of cells which incorporated BrdU and the total number of cells within one field of vision of a microscope (approximately 200 cells) were determined, and the proportion (%) of stained cells per field of vision was calculated. The above procedure was repeated 10 times, and the average value thereof was defined as the cell growth activity (%). The cell growth-inhibiting activity was calculated in the following manner. That is, the cell growth inhibition rate was calculated according to the following equation: X (%) = (1-B/A) x 100 [formula] where A is the growth activity when no peptide was added, and B is the growth activity when the test peptide was added.

[2] = system: Candida albicans ATCC 10231; format: cell-based; details: ATCC 10231, pH 7
Procedure: (§1) The antibacterial activity was determined by the agar dilution method using a medium (pH 7.0) which comprises 3 g/l Bacto-tryptone (Difco Laboratories), 1 g/l meat extract, 1 g/l glucose and 16 g/l agar.

[3] = system: Bacillus subtilis No. 10707; format: cell-based; details: No. 10707, pH 7
Procedure: as §1

[4] = system: Staphylococcus aureus ATCC 6538P; format: cell-based; details: pH 7
Procedure: as §1

[5] = system: Enterococcus hirae ATCC 10541; experiment: Antibacterial activity, agar dilution method; format: cell-based; details: pH 7
Procedure: as §1

[6] = system: Klebsiella pneumoniae ATCC 10031; experiment: Antibacterial activity, agar dilution method; format: cell-based; details: medium pH 7.0
Procedure: as §1

[7] = system: Proteus vulgaris ATCC 6897; format: cell-based; details: ATCC 6897, pH 7
Procedure: as §1

[8] = system: Pseudomonas aeruginosa Bin H No. 1; format: cell-based; details: Bin H No. 1, pH 7
Procedure: as §1

[9] = target: T1, PLC-γ1 (Bos taurus, UniProt P08487); experiment: PLC-inhibiting activity (release of [3H]inositol phosphate from [3H]PIP2); format: biochemical, bovine; details: 37°C, 10 minutes, pH 6.0, read-out: Inhibition rate (%)
T1 construct: A sample of PLC-γ1 was prepared from bovine thymus; from tissue; host or cells: bovine thymus
T1 sequence (P08487 1-1291): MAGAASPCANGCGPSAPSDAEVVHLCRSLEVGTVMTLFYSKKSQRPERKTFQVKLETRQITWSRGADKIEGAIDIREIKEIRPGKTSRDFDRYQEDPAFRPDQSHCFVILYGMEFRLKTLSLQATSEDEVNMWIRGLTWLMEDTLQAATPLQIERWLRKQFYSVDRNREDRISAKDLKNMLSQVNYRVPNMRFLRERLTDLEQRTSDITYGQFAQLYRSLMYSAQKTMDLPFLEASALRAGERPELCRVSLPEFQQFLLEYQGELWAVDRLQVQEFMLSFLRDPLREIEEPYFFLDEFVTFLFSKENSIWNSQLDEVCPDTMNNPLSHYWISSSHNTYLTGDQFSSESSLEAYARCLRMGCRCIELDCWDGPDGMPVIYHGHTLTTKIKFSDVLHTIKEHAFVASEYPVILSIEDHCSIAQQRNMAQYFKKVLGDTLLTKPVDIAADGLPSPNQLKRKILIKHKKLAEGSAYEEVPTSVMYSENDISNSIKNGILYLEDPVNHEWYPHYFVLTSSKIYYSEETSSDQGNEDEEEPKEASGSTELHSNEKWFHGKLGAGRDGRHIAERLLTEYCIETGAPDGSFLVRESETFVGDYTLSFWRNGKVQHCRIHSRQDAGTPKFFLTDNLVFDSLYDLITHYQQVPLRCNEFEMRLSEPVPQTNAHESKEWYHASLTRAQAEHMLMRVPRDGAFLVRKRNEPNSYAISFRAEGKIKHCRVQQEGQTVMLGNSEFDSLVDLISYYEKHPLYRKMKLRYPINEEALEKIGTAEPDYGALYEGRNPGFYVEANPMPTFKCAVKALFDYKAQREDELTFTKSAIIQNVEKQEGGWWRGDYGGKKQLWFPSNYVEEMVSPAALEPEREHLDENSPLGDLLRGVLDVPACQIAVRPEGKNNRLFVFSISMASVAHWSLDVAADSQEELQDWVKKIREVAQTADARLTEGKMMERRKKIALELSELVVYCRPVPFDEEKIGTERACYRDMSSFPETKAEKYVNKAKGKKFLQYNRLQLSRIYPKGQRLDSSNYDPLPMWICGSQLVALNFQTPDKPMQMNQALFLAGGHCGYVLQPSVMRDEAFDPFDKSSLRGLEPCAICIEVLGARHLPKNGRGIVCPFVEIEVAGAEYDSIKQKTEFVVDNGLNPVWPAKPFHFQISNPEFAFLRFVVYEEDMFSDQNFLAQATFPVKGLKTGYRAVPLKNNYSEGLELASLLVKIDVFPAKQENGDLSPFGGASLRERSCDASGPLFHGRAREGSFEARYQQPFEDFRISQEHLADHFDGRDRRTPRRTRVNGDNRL
Procedure: A sample of PLC-γ1 was prepared from bovine thymus according to the method described in Y. Honma et al., Biochem. J., 269, 13 (1990). A solution having the composition shown in Table 2 below was prepared on ice and was heated to 37°C to start reaction. After incubation for 10 minutes, 2 ml of a chloroform/methanol mixture (2:1, v/v) was added thereto to stop the reaction. The resulting inositol phosphate was extracted with 0.5 ml of 1 N hydrochloric acid. The extract was separated into two liquid phases by centrifugation (2000 x g, 3 minutes), and the amount of ^3H contained in the supernatant (0.7 ml) was measured with a scintillation counter. Table 2 [table] The inhibition rate (X) was calculated according to the following equation: X (%) = (A-C) / (B-C) x 100 [formula] where A is the obtained value of specific radioactivity, B is the value of specific radioactivity obtained when the same amount of water was added instead of the aqueous solution of the test peptide, and C is the value of specific radioactivity obtained when the same amount of water was added instead of the sample and the aqueous solution of the test peptide.

SMILES | Inhibition rate (%) [1] [%] | MIC (µg/ml) CA [2] [µg/mL] | MIC (µg/ml) BS [3] [µg/mL] | MIC (µg/ml) SA [4] [µg/mL] | MIC (µg/ml) EH [5] [µg/mL] | MIC (µg/ml) KP [6] [µg/mL] | MIC (µg/ml) PV [7] [µg/mL] | MIC (µg/ml) PA [8] [µg/mL] | inhibition at 116 µM ([9]; Concentration 116 µM (aqueous solution of test peptide provided for the test)) [%] | inhibition at 23 µM ([9]; Concentration 23 µM (aqueous solution of test peptide provided for the test)) [%]
CSCC[C@H](NC(=O)[C@H](CCCCN)NC(=O)[C@H](CCCNC(=N)N)NC(=O)[C@H](Cc1ccc(O)cc1)NC(=O)[C@H](CC(C)C)NC(C)=O)C(=O)N[C@@H](CCCNC(=N)N)C(=O)N[C@@H](CC(C)C)C(=O)N[C@@H](CCCNC(=N)N)C(=O)N[C@@H](Cc1ccc(O)cc1)C(=O)N1CCC[C@H]1C(=O)N[C@H](C(=O)NCCCCCCCCCCC(N)=O)C(C)C [Compound (I-6), CH3CO-Leu-Tyr-Arg-Lys-Met-Arg-Leu-Arg-Tyr-Pro-Val-NH-(CH2)10CONH2] (Ac-LYRKMRLRYPV[Aun]-NH2) | 57 | 171 (≈ 99.5 µM) | 43 (≈ 25 µM) | 171 (≈ 99.5 µM) | 171 (≈ 99.5 µM) | 43 (≈ 25 µM) | 43 (≈ 25 µM) | 85 (≈ 49.4 µM) | 85 | –
CCCC(=O)N[C@@H](CC(C)C)C(=O)N[C@@H](Cc1ccc(O)cc1)C(=O)N[C@@H](CCCNC(=N)N)C(=O)N[C@@H](CCCCN)C(=O)N[C@@H](CCSC)C(=O)N[C@@H](CCCNC(=N)N)C(=O)N[C@@H](CC(C)C)C(=O)N[C@@H](CCCNC(=N)N)C(=O)N[C@@H](Cc1ccc(O)cc1)C(=O)N1CCC[C@H]1C(=O)N[C@H](C(=O)NCCCCCCCCCCCC(N)=O)C(C)C [Compound (I-9), C3H7CO-Leu-Tyr-Arg-Lys-Met-Arg-Leu-Arg-Tyr-Pro-Val-NH-(CH2)11CONH2] (Butyryl-LYRKMRLRYPV[12Ado]-NH2) | – | – | 50 (≈ 28.4 µM) | 200 (≈ 114 µM) | – | – | 100 (≈ 56.8 µM) | 200 (≈ 114 µM) | – | 73
